Test results reported in patent US6984521B2, “HEK293 cell line for activity studies and HTS system of α1G T-type Ca2+ channel” (Korea Institute of Science and Technology, priority 2003, dated 2006).

Tests used:
Kir2.1 = target: T1, Kir2.1 (Homo sapiens, UniProt P63252); assay: Kir2.1 channel current, whole-cell patch-clamp; format: cell-based; details: Kir2.1+α1G HEK293 cell; -140 to -60 mV step pulse; 1-100 μM Ba2+, 5-500 μM Cs+
T1 construct: expressed in transfected cells; host or cells: HEK293 cells stably expressing α1G T-type calcium channel, transduced with Kir2.1-pMSCVpuro retrovirus (Kir2.1+α1G HEK293)
T1 sequence (P63252 1-427): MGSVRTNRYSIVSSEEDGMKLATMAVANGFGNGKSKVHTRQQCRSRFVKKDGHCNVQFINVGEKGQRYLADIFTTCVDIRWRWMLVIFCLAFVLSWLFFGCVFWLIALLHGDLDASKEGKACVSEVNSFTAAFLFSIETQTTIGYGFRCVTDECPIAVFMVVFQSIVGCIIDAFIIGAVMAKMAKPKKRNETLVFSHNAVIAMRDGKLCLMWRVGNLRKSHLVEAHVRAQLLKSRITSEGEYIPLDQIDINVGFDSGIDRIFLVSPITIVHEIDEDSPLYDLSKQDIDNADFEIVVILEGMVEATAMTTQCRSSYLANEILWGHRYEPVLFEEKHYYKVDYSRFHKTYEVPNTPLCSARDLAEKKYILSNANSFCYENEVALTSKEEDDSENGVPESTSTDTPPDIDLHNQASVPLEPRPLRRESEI
Procedure: Further, the current of IRK-type potassium channel, Kir2.1 was also determined in a single cell level by the whole-cell patch-clamp method. An extracellular solution for determining IRK-type potassium channel activity comprised NaCl 135 mM, KCl 5.4 mM, CaCl2 1.8 mM, MgCl2 1 mM, HEPES 5 mM and glucose 10 mM (pH 7.4). An intracellular solution comprised D-gluconic acid (potassium salt form) 140 mM, MgCl2 2 mM, EGTA 1 mM, HEPES 5 mM and Na2ATP 1 mM (pH 7.4).
After the cell membrane voltage was fixed as about −60 mV in a whole-cell recording mode, −140 to −60 mV of 200 ms step pulse was applied to determine the inward current induced by potassium inwardly-rectifying channel activation of HEK293 cell.
Furthermore, the characteristics of Kir2.1 channel were analyzed by comparing with IC50 value for Ba^2+ and Cs^+, the conventionally known IRK-type potassium channel inhibitor. For this, Kir2.1 channel activity determination method, as discussed above, was used and the inhibition by the known Kir2.1 inhibitor, Ba^2+ and Cs^+, was observed.
FIG. 4e and FIG. 4f are graphs showing the maximum current that occurred at each voltage when 1–100 μM Ba^2+ and 5–500 μM Cs^+ known as Kir2.1 inhibitor were administered to Kir2.1+α1G HEK293 cell under −140 to −60 mV step pulse.

Kir2.1+α1G HEK293 cell = assay: Intracellular calcium with fura-2/AM, cell line of the invention; format: cell-based, human; details: 70 mM KCl
Procedure: (§1) The calcium concentration in the cell was determined by using fura-2/AM as a fluorescent Ca^2+ label. The cells were primarily incubated with 5 μM fura-2/AM and 0.001% Pluronic F-127 in HEPES buffer solution (150 mM NaCl, 5 mM KCl, 1 mM MgCl2, 2 mM CaCl2, 10 mM HEPES, 10 mM glucose, pH 7.4) at a room temperature for about 40 to 60 minutes and then washed several times with HEPES buffer solution. After stablilzing the cells for about 10 minutes, the cells were selectively exposed to 340 nm and 380 nm by using an inverted microscope. Thereafter, the emitter fluorescence light that was entered through 515 nm long-pass filter was passed through a cooled CCD […]. The light was converted into the intracellular calcium concentration by digital fluorescence analyzer to determine the calcium concentration.

α1G HEK293 cell = assay: Intracellular calcium with fura-2/AM, control cell; format: cell-based, human; details: 70 mM KCl
Procedure: as §1

[1] = target: T2, α1G T-type calcium channel (Rattus norvegicus, UniProt O54898); assay: T-type calcium channel current, whole-cell patch-clamp; format: cell-based; details: activated at about -30 mV; Ni2+ 1 μM to 1 mM, mibefradil 0.1 to 10 μM
T2 construct: expressed in transfected cells; host or cells: HEK293 stably expressing α1G (α1G HEK293, control) and Kir2.1+α1G HEK293
T2 sequence (O54898 whole entry): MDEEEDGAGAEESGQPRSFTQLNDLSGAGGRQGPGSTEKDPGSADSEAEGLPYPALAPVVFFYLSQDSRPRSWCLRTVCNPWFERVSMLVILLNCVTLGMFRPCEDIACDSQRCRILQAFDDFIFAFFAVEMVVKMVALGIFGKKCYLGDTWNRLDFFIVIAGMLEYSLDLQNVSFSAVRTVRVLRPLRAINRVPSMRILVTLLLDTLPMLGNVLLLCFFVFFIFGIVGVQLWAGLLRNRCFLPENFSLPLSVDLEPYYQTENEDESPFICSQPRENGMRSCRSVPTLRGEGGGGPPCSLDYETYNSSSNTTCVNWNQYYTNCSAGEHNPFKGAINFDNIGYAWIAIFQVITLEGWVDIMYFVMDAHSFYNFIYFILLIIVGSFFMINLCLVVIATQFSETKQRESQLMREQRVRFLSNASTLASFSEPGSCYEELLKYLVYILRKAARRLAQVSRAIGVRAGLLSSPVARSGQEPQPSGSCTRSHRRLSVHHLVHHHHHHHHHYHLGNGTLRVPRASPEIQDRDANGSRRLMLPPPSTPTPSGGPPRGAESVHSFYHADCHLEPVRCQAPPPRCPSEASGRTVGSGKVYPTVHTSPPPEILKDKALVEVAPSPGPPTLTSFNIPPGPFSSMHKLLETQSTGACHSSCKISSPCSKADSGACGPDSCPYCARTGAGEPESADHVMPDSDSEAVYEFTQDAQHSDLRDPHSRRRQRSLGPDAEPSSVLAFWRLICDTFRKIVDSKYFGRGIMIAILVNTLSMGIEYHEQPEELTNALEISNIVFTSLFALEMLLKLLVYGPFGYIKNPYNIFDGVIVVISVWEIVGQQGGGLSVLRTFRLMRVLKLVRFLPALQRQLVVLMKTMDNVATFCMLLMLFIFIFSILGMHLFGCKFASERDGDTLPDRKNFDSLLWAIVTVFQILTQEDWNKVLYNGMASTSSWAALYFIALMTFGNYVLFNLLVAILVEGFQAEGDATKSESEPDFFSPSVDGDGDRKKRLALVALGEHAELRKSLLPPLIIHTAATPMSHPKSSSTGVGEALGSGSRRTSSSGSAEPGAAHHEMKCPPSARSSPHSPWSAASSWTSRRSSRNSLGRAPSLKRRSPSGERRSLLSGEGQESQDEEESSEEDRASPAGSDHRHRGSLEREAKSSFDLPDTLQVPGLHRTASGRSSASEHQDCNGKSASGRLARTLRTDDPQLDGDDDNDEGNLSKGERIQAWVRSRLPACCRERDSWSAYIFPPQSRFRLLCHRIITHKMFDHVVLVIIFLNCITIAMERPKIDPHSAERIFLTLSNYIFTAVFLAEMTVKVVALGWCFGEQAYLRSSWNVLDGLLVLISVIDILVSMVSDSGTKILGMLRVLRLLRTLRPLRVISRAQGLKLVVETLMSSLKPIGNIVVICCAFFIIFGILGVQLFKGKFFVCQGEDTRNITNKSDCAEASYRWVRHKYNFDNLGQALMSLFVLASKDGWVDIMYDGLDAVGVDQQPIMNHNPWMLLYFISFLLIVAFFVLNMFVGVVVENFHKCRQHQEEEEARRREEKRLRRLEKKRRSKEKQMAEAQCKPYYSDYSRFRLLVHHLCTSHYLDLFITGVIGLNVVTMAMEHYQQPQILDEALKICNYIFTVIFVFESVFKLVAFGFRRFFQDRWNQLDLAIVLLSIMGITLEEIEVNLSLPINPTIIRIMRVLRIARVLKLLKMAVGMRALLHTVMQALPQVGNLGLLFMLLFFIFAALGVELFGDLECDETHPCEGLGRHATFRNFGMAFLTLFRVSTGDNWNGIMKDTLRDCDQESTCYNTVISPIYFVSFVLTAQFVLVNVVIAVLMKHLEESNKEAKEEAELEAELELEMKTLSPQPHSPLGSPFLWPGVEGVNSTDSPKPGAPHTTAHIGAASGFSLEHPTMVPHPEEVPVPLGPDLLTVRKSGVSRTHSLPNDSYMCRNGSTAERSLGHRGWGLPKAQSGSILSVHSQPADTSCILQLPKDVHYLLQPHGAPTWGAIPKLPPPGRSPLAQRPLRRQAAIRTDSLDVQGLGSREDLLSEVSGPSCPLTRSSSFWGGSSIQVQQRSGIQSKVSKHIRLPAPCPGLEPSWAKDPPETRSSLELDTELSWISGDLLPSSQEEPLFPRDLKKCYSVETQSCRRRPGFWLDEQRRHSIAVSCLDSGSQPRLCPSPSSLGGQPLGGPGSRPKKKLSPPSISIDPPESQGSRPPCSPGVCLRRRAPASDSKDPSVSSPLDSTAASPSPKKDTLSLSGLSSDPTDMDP
Procedure: EPC-9 amplifier (HEKA, Germany) was used to determine the current of T-type calcium channel in a single cell level by electrophysiological whole-cell patch-clamp method. An extracellular solution for determining T-type calcium channel activity comprised NaCl 140 mM, CaCl2 2 mM and HEPES 10 mM (pH 7.4), whereas an intracellular solution comprised KCl 130 mM, HEPES 10 mM, EGTA 11 mM and MgATP 5 mM (pH 7.4).
The prepared intracellular solution was introduced into a microglass electrode of about 3–4 MΦ resistance. Then, the single cell was pricked with the electrode to fix the cell membrane voltage as about −100 mV in a whole-cell recording mode. Thereafter, the inward current was determined, in which the current was induced by T-type calcium channel activity when the hypopolarization was caused by about −30 mV (50 ms duration) approximately every 10 seconds.
Furthermore, the characteristics of the channel were analyzed by comparing with IC50 value for Ni^2+ and mibefradil, the conventionally known T-type calcium channel inhibitor. About 1 μM to 1 mM of Ni^2+ and about 0.1 to 10 μM of mibefradil were administered to the cell, respectively, according to the electrophysiological whole-cell patch-clamp method as described above, and then the inhibition (%) of the maximum of the inward current, caused through T-type calcium channel activated at or about −30 mV, was determined.

SMILES	inhibition of Kir2.1 current (maximum current at each voltage) (Kir2.1)	IC50 for inhibition of inward current through T-type calcium channel, Kir2.1+α1G HEK293 cell compared with α1G HEK293 cell [1]	also measured
[Ba+2] [Ba^2+]	inhibited in a concentration-dependent manner	–	–
[Cs+] [Cs^+]	inhibited in a concentration-dependent manner	–	–
[Cl-].[K+] [KCl]	–	–	calcium influx (Kir2.1+α1G HEK293 cell): calcium influx is induced; calcium influx (α1G HEK293 cell): does not change calcium influx
[Ni+2] [Ni^2+]	–	not significantly different	–
COCC(=O)O[C@]1(CCN(C)CCCc2nc3ccccc3[nH]2)CCc2cc(F)ccc2[C@@H]1C(C)C [mibefradil]	–	not significantly different	–
